According to the supplement of paper PMC10307832:

Key:
Assay in all cases: relative viability (nuclei count vs DMSO), 5 days (fraction); higher = more cells survive
Shikonin + Tozasertib = compound: CC(C)=CC[C@@H](O)C1=CC(=O)c2c(O)ccc(O)c2C1=O [Shikonin] + Cc1cc(Nc2cc(N3CCN(C)CC3)nc(Sc3ccc(NC(=O)C4CC4)cc3)n2)n[nH]1 [Tozasertib] (partner 0.1 µM)
Outline: (§1)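 For relative viability, nuclei counts in treated wells were divided by those in vehicle wells. Lung cancer cell lines had been pin-tool dosed in 1536-well plates the day after seeding and cultured for 5 days, then fixed and stained in one step (final 0.05% Triton X-100, 1% formaldehyde, 1 ug/ml Hoechst) and imaged at 4×. Doses were one drug alone or a fixed anchor-drug dose plus five library-drug doses (not always all listed) in √10 steps, and values are duplicate-plate medians.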

[1] = compound: CC(C)N(CCCNC(=O)Nc1ccc(C(C)(C)C)cc1)C[C@H]1O[C@@H](n2ccc3c(N)ncnc32)[C@H](O)[C@@H]1O + CC(=O)c1c(C)c2cnc(Nc3ccc(N4CCNCC4)cn3)nc2n(C2CCCC2)c1=O [Palbociclib] (partner 0.5 µM)
Outline: as §1

[2] = compound: CC(C)N(CCCNC(=O)Nc1ccc(C(C)(C)C)cc1)C[C@H]1O[C@@H](n2ccc3c(N)ncnc32)[C@H](O)[C@@H]1O + CC1(C)CCC(c2ccc(Cl)cc2)=C(CN2CCN(c3ccc(C(=O)NS(=O)(=O)c4ccc(N[C@H](CCN5CCOCC5)CSc5ccccc5)c(S(=O)(=O)C(F)(F)F)c4)cc3)CC2)C1 [Navitoclax] (partner 0.5 µM)
Outline: as §1

[3] = compound: CC(C)N(CCCNC(=O)Nc1ccc(C(C)(C)C)cc1)C[C@H]1O[C@@H](n2ccc3c(N)ncnc32)[C@H](O)[C@@H]1O + C[C@]1(O)C[C@@H](c2nc(-c3ccc4ccc(-c5ccccc5)nc4c3)c3c(N)nccn32)C1 [Linsitinib] (partner 1 µM)
Outline: as §1

| Cell Line | relative viability (Shikonin + Tozasertib; first compound 0.01 µM) | relative viability (Shikonin + Tozasertib; first compound 0.1 µM) | relative viability (Shikonin + Tozasertib; first compound 0.3162 µM) | relative viability (Shikonin + Tozasertib; first compound 1 µM) | relative viability ([1]; first compound 0.08 µM) | relative viability ([1]; first compound 0.253 µM) | relative viability ([1]; first compound 0.8 µM) | relative viability ([1]; first compound 2.53 µM) | relative viability ([1]; first compound 8 µM) | relative viability ([2]; first compound 0.08 µM) | relative viability ([2]; first compound 0.253 µM) | relative viability ([2]; first compound 0.8 µM) | relative viability ([2]; first compound 2.53 µM) | relative viability ([2]; first compound 8 µM) | relative viability ([3]; first compound 0.08 µM) | relative viability ([3]; first compound 0.253 µM) | relative viability ([3]; first compound 0.8 µM) | relative viability ([3]; first compound 2.53 µM) | relative viability ([3]; first compound 8 µM) |
| --- | --- | --- | --- | --- | --- | --- | --- | --- | --- | --- | --- | --- | --- | --- | --- | --- | --- | --- | --- |
| LU99A | 0.248 | 0.281 | 0.298 | 0.234 | 0.399 | 0.387 | 0.436 | 0.427 | 0.405 | 0.745 | 0.717 | 0.747 | 1.01 | 0.881 | 0.516 | 0.405 | 0.521 | 0.582 | 0.563 |
| HCC-827 | 0.452 | 0.456 | 0.432 | 0.453 | 0.22 | 0.468 | 0.32 | 0.477 | 0.5 | 0.992 | 0.949 | – | 0.962 | 0.977 | 0.936 | 0.904 | – | 0.892 | 0.89 |
| LK-2 | 0.178 | 0.154 | 0.165 | 0.154 | – | 0.665 | 0.845 | 0.775 | 0.622 | 0.848 | 0.775 | 0.929 | 0.768 | 0.711 | 0.678 | 0.405 | 0.496 | 0.554 | 0.509 |
| HCC-366 | 0.118 | 0.103 | 0.166 | 0.114 | 0.34 | 0.372 | 0.41 | 0.375 | 0.396 | 1.08 | 1.05 | 0.928 | 0.898 | 0.942 | 0.597 | 0.581 | 0.563 | 0.547 | 0.513 |
| BEN | 0.508 | 0.507 | 0.51 | 0.52 | 0.446 | 0.509 | 0.453 | 0.503 | 0.445 | 0.0864 | 0.0543 | 0.0608 | 0.0499 | 0.0778 | 0.819 | 0.849 | 0.924 | 1.01 | 0.865 |
| NCI-H2347 | 0.546 | 0.504 | 0.594 | 0.558 | 0.423 | 0.44 | 0.407 | 0.553 | 0.404 | 0.86 | 0.684 | 0.608 | 0.771 | 0.71 | 1 | 0.95 | 0.868 | 1.02 | 0.97 |
| NCI-H1395 | 0.794 | 0.842 | 0.806 | 0.763 | 0.587 | 0.59 | 0.651 | 0.626 | 0.625 | 1.17 | 1.1 | – | 1.23 | 1.53 | 1.09 | 0.881 | – | 1.07 | 0.987 |
| 201T | 0.99 | 1.14 | 0.968 | 0.935 | 0.338 | 0.352 | – | 0.328 | 0.357 | 1.21 | 1.21 | 1.24 | 1.21 | 1.25 | 1.01 | 1.06 | 0.981 | 1.01 | 1.08 |
